What was measured:
Format in all cases: cell-based
[1] = molecular target: EP2 subtype of the human PGE2 receptor (Homo sapiens, UniProt P43116); assay: cAMP antagonism test on the human EP2 receptor (HTRF cAMP detection); details: hEP2 receptor, read-out: Antagonism hEP2 IC50
Procedure, shortened: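 Cells expressing human EP2 preincubated 20 min at RT with compound (0.8 nM–16.5 μM), then stimulated 60 min with PGE2 (3× solution 1.5 nM) in PBS-IBMX. After 20 min lysis, cAMP measured by competitive HTRF with cAMP-d2 and Eu cryptate anti-cAMP antibody (665/620 nm ratio).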

[2] = molecular target: EP4 subtype of the human PGE2 receptor (Homo sapiens, UniProt P35408); assay: cAMP antagonism test on the human EP4 receptor (HTRF cAMP detection); details: selectivity towards hEP4, IC50 measured by cAMP antagonism test
Chain of EP4 subtype of the human PGE2 receptor (P35408 whole entry): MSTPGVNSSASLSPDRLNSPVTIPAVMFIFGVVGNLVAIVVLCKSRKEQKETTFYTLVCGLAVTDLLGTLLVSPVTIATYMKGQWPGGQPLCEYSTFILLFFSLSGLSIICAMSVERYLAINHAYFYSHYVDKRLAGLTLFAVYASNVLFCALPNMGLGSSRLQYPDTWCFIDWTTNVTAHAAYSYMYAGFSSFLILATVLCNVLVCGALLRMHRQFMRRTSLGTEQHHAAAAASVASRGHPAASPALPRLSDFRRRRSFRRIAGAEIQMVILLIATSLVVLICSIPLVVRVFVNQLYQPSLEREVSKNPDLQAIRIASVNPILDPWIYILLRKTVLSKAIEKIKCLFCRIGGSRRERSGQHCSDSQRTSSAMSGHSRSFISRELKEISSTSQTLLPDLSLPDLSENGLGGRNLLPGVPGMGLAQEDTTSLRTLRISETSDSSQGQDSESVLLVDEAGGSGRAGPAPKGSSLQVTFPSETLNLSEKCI
Procedure, shortened: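 Cells expressing human EP4 preincubated 20 min at RT with compound (0.8 nM–16.5 μM), then stimulated with PGE2 (0.3 nM in 3× solution, with IBMX) 60 min at RT. After lysis, cAMP measured by HTRF competition (665/620 nm ratio); antagonism seen as rise in FRET signal.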

human PGD receptor = molecular target: T1, human PGD receptor (Homo sapiens, UniProt Q13258); assay: cAMP antagonism test on the human prostaglandin D receptor (HTRF cAMP detection); details: selectivity towards hDP, IC50 measured by cAMP antagonism test
T1 sequence (Q13258 1-359): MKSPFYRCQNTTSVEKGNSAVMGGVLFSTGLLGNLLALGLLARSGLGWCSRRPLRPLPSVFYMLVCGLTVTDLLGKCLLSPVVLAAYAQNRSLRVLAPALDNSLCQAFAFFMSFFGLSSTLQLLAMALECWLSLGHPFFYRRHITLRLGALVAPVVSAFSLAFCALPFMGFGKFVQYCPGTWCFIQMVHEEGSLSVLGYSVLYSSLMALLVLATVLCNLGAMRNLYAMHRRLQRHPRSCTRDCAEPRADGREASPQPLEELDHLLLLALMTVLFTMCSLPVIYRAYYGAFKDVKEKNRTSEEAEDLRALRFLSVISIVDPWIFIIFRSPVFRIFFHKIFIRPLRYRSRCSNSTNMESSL
Procedure, shortened: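 Cells pre-mixed with cAMP-d2 were preincubated with compound (0.8 nM–16.5 μM) for 20 min at RT, then stimulated with 3× PGD2 solution (6 nM, in PBS-IBMX) for 30 min at RT. After lysis (20 min), HTRF read at 665/620 nm; antagonism seen as rise in FRET ratio.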

Chain of EP2 subtype of the human PGE2 receptor (P43116 whole entry): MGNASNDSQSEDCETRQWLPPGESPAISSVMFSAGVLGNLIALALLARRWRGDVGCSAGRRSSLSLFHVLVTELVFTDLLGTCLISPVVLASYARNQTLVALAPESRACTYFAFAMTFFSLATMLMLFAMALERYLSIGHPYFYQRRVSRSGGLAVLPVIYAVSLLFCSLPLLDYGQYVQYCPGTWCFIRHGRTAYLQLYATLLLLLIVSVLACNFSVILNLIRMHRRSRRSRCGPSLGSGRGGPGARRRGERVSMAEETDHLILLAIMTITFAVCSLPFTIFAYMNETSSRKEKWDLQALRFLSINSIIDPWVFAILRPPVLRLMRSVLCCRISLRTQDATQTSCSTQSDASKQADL

Structure (SMILES) | IC50 [1] [nM] | Selectivity hEP2/hEP4 [2] | Selectivity hEP2/hDP (human PGD receptor)
Cc1c(C(=O)NCC2COCCO2)ccc2nn(CC3CCN(C(=O)c4ccc(Cl)cc4)CC3)cc12 (single isomer, unassigned) [Example 414, (R or S)-2-{[1-(4-chlorobenzoyl)piperidin-4-yl]methyl}-N-(1,4-dioxan-2-ylmethyl)-4-methyl-2H-indazol-5-carboxamide] | 223 | xx (xx: 10-100) | xx (xx: 10-100)
O=C(NCCOCC1CC1)c1ccc2nn(CC3CCN(C(=O)c4ccc(Oc5ccc(F)cc5)cc4)CC3)cc2c1OC(F)F [Example 230, N-[2-(cyclopropylmethoxy)ethyl]-4-(difluoromethoxy)-2-({1-[4-(4-fluoro-phenoxy)benzoyl]piperidin-4-yl}methyl)-2H-indazol-5-carboxamide] | 13.7 | xxx (xxx > 100) | xxx (xxx > 100)
Cc1c(C(=O)NCCOCC2CC2)ccc2nn(CC3CCN(C(=O)c4ccc(-c5ccc(F)cc5)cc4)CC3)cc12 [Example 88, N-[2-(cyclopropyl-methoxy)ethyl]-2-({1-[(4′-fluorobiphenyl-4-yl)carbonyl]piperidin-4-yl}methyl)-4-methyl-2H-indazol-5-carboxamide] | 16.2 | xxx (xxx > 100) | xxx (xxx > 100)
COCCNC(=O)c1ccc2nn(CC3CCN(C(=O)c4ccc(-c5ccc(F)cc5)cc4)CC3)cc2c1OCC(F)(F)F [Example 234, 2-({1-[(4′-fluorobiphenyl-4-yl)carbonyl]piperidin-4-yl}methyl)-N-(2-methoxy-ethyl)-4-(2,2,2-trifluoroethoxy)-2H-indazol-5-carboxamide] | 47.7 | xxx (xxx > 100) | xxx (xxx > 100)
COCCNC(=O)c1ccc2nn(C[C@@H]3CCN(C(=O)c4ccc(Cl)cc4)C3)cc2c1C [Example 217, 2-{[(R)-1-(4-chlorobenzoyl)pyrrolidin-3-yl]methyl}-N-(2-methoxyethyl)-4-methyl-2H-indazol-5-carboxamide] | 114 | xxx (xxx > 100) | xxx (xxx > 100)
Cc1c(C(=O)NCCOC(C)C)ccc2nn(CC3CCN(C(=O)c4ccc(C5CC5)cc4)CC3)cc12 [Example 101, 2-{[1-(4-cyclopropyl-benzoyl)piperidin-4-yl]methyl}-N-(2-isopropoxyethyl)-4-methyl-2H-indazol-5-carboxamide] | 6.58 | xxx (xxx > 100) | xxx (xxx > 100)
COCCNC(=O)c1ccc2nn(CC3CCN(C(=O)c4ccccc4OC)CC3)cc2c1C [Example 24, 2-{[1-(2-methoxy-benzoyl)piperidin-4-yl]methyl}-N-(2-methoxyethyl)-4-methyl-2H-indazol-5-carboxamide] | 60.1 | xxx (xxx > 100) | xxx (xxx > 100)
COCCNC(=O)c1ccc2nn(CC3CCN(C(=O)c4ccc(C(C)(C)O)cc4)CC3)cc2c1C [Example 334, 2-({1-[4-(1-hydroxy-1-methylethyl)benzoyl]piperidin-4-yl}methyl)-N-(2-methoxyethyl)-4-methyl-2H-indazol-5-carboxamide] | 74.2 | xxx (xxx > 100) | xxx (xxx > 100)
Cc1c(C(=O)NCC(F)(F)F)ccc2nn(CC3CCN(C(=O)c4ncc(-c5ccccc5)o4)CC3)cc12 [Example 309, 4-methyl-2-({1-[(5-phenyloxazol-2-yl)carbonyl]piperidin-4-yl}methyl)-N-(2,2,2-trifluoroethyl)-2H-indazol-5-carboxamide] | 66 | xxx (xxx > 100) | xxx (xxx > 100)
Cc1c(C(=O)NCC(C)OC2CCC2)ccc2nn(CC3CN(C(=O)c4ccc(Cl)cc4)C3)cc12 (single isomer, unassigned) [Example 156, (R or S)-2-{[1-(4-chlorobenzoyl)azetidin-3-yl]methyl}-N-[2-(cyclobutyloxy)-propyl]-4-methyl-2H-indazol-5-carboxamide] | 184 | xx (xx: 10-100) | xx (xx: 10-100)
Cc1c(C(=O)NCC(F)(F)F)ccc2nn(CC3CN(C(=O)c4cc5cc(F)ccc5n4C)C3)cc12 [Example 167, 2-({1-[(5-fluoro-1-methyl-1H-indol-2-yl)carbonyl]azetidin-3-yl}methyl)-4-methyl-N-(2,2,2-trifluoroethyl)-2H-indazol-5-carboxamide] | 13.5 | xxx (xxx > 100) | xxx (xxx > 100)
COCCNC(=O)c1ccc2nn(CC3CCN(C(=O)c4ccc(Cl)c(C(F)(F)F)c4)CC3)cc2c1OC [Example 270, 2-({1-[4-chloro-3-(trifluoromethyl)benzoyl]piperidin-4-yl}methyl)-4-methoxy-N-(2-methoxyethyl)-2H-indazol-5-carboxamide] | 53.1 | xxx (xxx > 100) | xxx (xxx > 100)
COCCNC(=O)c1ccc2nn(CC3CCN(C(=O)c4ccc(Oc5ccc(F)cc5)cc4)CC3)cc2c1OC(F)F [Example 226, 4-(difluoromethoxy)-2-({1-[4-(4-fluorophenoxy)benzoyl]piperidin-4-yl}methyl)-N-(2-methoxyethyl)-2H-indazol-5-carboxamide] | 11.9 | xxx (xxx > 100) | xxx (xxx > 100)
Cc1ccc(-c2ccc(C(=O)N3CCC(Cn4cc5c(C)c(C(=O)NCC(F)(F)F)ccc5n4)CC3)cc2)cn1 [Example 319, 4-methyl-2-({1-[4-(6-methylpyridin-3-yl)benzoyl]piperidin-4-yl}methyl)-N-(2,2,2-trifluoroethyl)-2H-indazol-5-carboxamide] | 315 | xx (xx: 10-100) | xx (xx: 10-100)
Cc1c(C(=O)NCCN2CCOCC2)ccc2nn(CC3CN(C(=O)c4ccc(Cl)cc4)C3)cc12 [Example 128, 2-{[1-(4-chlorobenzoyl)azetidin-3-yl]methyl}-4-methyl-N-(2-morpholinoethyl)-2H-indazol-5-carboxamide] | 471 | xx (xx: 10-100) | xx (xx: 10-100)
COCCNC(=O)c1cc2cn(CC3CCN(C(=O)c4ccc(S(F)(F)(F)(F)F)cc4)CC3)nc2cc1C [Example 210, N-(2-methoxyethyl)-6-methyl-2-({1-[4-(pentafluoro-λ^6-sulphanyl)benzoyl]-piperidin-4-yl}methyl)-2H-indazol-5-carboxamide] | 19.5 | xxx (xxx > 100) | xxx (xxx > 100)
Cc1c(C(=O)NCCOCC2CC2)ccc2nn(CC3CCN(C(=O)c4ccc(C(F)(F)F)cc4)CC3)cc12 [Example 87, N-[2-(cyclopropyl-methoxy)ethyl]-4-methyl-2-({l-[4-(tri-fluoromethyl)benzoyl]piperidin-4-yl}-methyl)-2H-indazol-5-carboxamide] | 24 | xxx (xxx > 100) | xxx (xxx > 100)
COCCNC(=O)c1cc2cn(CC3CCN(C(=O)c4ccc(Cl)cc4F)CC3)nc2cc1C [Example 207, 2-{[1-(4-chloro-2-fluorobenzoyl)piperidin-4-yl]methyl}-N-(2-methoxyethyl)-6-methyl-2H-indazol-5-carboxamide] | 30.3 | xxx (xxx > 100) | xxx (xxx > 100)
COCCNC(=O)c1ccc2nn(CC3CCN(C(=O)c4ccc(-c5cncc(C(F)(F)F)c5)cc4)CC3)cc2c1C [Example 387, N-(2-methoxyethyl)-4-methyl-2-[(1-{4-[5-(trifluoromethyl)pyridin-3-yl]-benzoyl}piperidin-4-yl)methyl]-2H-indazol-5-carboxamide] | 13.2 | xxx (xxx > 100) | xxx (xxx > 100)
Cc1c(C(=O)NCC2COCCO2)ccc2nn(CC3CCN(C(=O)c4ccc(Oc5ccc(C(F)(F)F)cc5)cc4)CC3)cc12 (racemic) [Example 249, (+/−)-N-(1,4-dioxan-2-ylmethyl)-4-methyl-2-[(1-{4-[4-(trifluoromethyl)phenoxy]benzoyl}piperidin-4-yl)methyl]-2H-indazol-5-carboxamide] | 11.2 | xxx (xxx > 100) | xxx (xxx > 100)

Reference: US9062041B2 (Bayer Intellectual Property GmbH, priority 2011, dated 2015)
